According to article PMC11259170, “Small-molecule probe for IBD risk variant GPR65 I231L alters cytokine signaling networks through positive allosteric modulation” (Science Advances, 2024):

Test system: GPR65 WT BMDCs
Assay: RNA sequencing of BMDCs, GPR65 WT
Format: cell-based, mouse
Protocol: BMDCs were differentiated from bone marrow from in Dulbecco’s modified Eagle’s medium (DMEM) [10% heat-inactivated fetal bovine serum (FBS), 1X GlutaMAX, 1% penicillin-streptomycin] containing recombinant murine granulocyte-macrophage colony-stimulating factor (rmGM-CSF) (20 ng/ml; Peprotech, 315-03) for 7 days, supplemented with additional DMEM + rmGM-CSF on day 3. Cells were then scraped and seeded at 1 × 10^5 cells per well in a 96-well microplate and allowed to adhere overnight.
Different media were prepared on the basis of target pH. pH 6.6: DMEM [10% FBS, 1% penicillin/streptomycin (p/s), 20 mM BES (MilliporeSigma, B4554), 1X Glutamax (Gibco, 35050061), 3.75 mM sodium bicarbonate, and 41.25 mM NaCl]. pH 7.2: DMEM (10% FBS, 1% p/s, 20 mM BES, 1X Glutamax, 7.5 mM sodium bicarbonate, and 36.5 mM NaCl). pH 7.6: DMEM 10% FBS, 1% p/s, 20 mM BES, 1X Glutamax, and 44 mM sodium bicarbonate. Media was allowed to equilibrate overnight at 37°C, 5% CO2 in a vented conical tube, and then adjusted to desired pH immediately before the stimulation using 1 M NaOH.
BMDCs were stimulated with different compounds and pH conditions while simultaneously challenged with zymosan (5 μg/ml; Invivogen, tlrl-zyn) for 2 hours. The treatment conditions were as follows: (i) pH 7.2 + DMSO, (ii) pH 7.2 + 20 μM BRD5075, (iii) pH 7.6 + DMSO, and (iv) pH 7.6 + 5 μM PGE2 (Tocris, 2296). Cells were lysed with a lysis/binding buffer (Invitrogen, A33562).
Libraries were prepared using a modified SmartSeq2 protocol. RNA lysates were purified with Dynabeads mRNA Direct Purification kit (Life Technologies, 61011), followed by reverse transcription with Maxima Reverse Transcriptase (Thermo Fisher Scientific, EP0742) and whole transcription amplification (WTA) with KAPA HotStart HiFi 2x ReadyMix (Kapa Biosystems, KK2601). WTA products were purified with Ampure XP beads (Beckman Coulter, A63880). RNA sequencing libraries were constructed using Nextera XT DNA Library Preparation kit (Illumina, FC-131-1096). Samples were purified with Ampure XP, pooled in equal quantities, then run on 2% E-gel EX (Invitrogen, G402022). Extracted library from ~250 to 800 bps with gel extraction kit (Zymo Research, D4008). The libraries were sequenced on an Illumina NextSeq 500 instrument with NextSeq 500/550 High Output v2 kit (Illumina, 20024906) and the following parameters: paired End: Index1 8, Index2 8, Read1 38, Read 2 38.
BCL files were converted to fastq using Bcl2Fastq. Fastq reads were aligned to the mouse reference genome mm10 using the STAR aligner ([55]), and counts assigned to genes using the RSEM package ([56]). The R/Bioconductor package DESeq2 ([57]) was used to identify differentially expressed (DE) genes. The data were not normalized or pre-processed in any way, as DESeq2 expects raw un-normalized counts as input. Genes with a Benjamini and Hochberg–corrected P value < 0.1 were considered statistically significant.

[1] = WT BMDCs, BRD5075 vs DMSO, pH 7.2

## Cc1ccc(NC(=O)c2cnn3c(O)cc(-c4ccc(COC(C)C)cc4)nc23)nc1 [BRD5075, O=C(NC1=NC=C(C)C=C1)C2=C3N(N=C2)C(O)=CC(C4=CC=C(COC(C)C)C=C4)=N3]
20 μM vs DMSO, pH 7.2
  Fos expression: up-regulated
  Socs3 and Cish expression: down-regulated
  Tnfrsf9, Tnfrsf26 and Tnfaip8 expression: down-regulated
  expression of inflammatory cytokine (Il12b, Il1b, Tnf) and chemokine (Ccl7, Ccl2, Ccl22, Cxcl1, Cxcl2, Cxcl3) genes: down-regulated
20 μM vs DMSO, pH 7.2, zymosan, 2 hours
  Mt1 and Mt2 expression: up-regulated
[1]
  log2FoldChange Acod1: -0.8043
  log2FoldChange Ahnak: -0.3498
  log2FoldChange Bcl2a1a: -0.4699
  log2FoldChange Bcl2a1b: -0.2827
  log2FoldChange Bcl2a1d: -0.38
  log2FoldChange Btg1: -0.3947
  log2FoldChange Cacnb3: -0.5998
  log2FoldChange Cap1: -0.3862
  log2FoldChange Car2: -0.6566
  log2FoldChange Ccl2: -0.6388
  log2FoldChange Ccl5: -0.8152
  log2FoldChange Ccl7: -1.049
  log2FoldChange Ccl22: -0.5298
  log2FoldChange Ccr7: -0.5607
  log2FoldChange Ccrl2: -0.6903
  log2FoldChange Cd14: -0.4004
  log2FoldChange Cd86: -0.6053
  log2FoldChange Cdc37: -0.5925
  log2FoldChange Cdc42ep2: -0.4809
  log2FoldChange Cebpb: -0.9437
  log2FoldChange Cflar: -0.6547
  log2FoldChange Cish: -0.8764
  log2FoldChange Clec4e: -0.6037
  log2FoldChange Coro1a: -0.3668
  log2FoldChange Cxcl1: -0.8744
  log2FoldChange Cxcl2: -0.4995
  log2FoldChange Cxcl3: -0.5082
  log2FoldChange Cytip: -0.4125
  log2FoldChange Ddx5: -0.3311
  log2FoldChange Ehd1: -0.3665
  log2FoldChange Eif1a: -0.4662
  log2FoldChange Fam177a: -0.5633
  log2FoldChange Flrt3: -0.6822
  log2FoldChange Fos: 0.7626
  log2FoldChange Fscn1: -1.127
  log2FoldChange Gem: -0.7493
  log2FoldChange Ghitm: -0.3657
  log2FoldChange Gpr84: -0.6049
  log2FoldChange H2-Ab1: -0.3044
  log2FoldChange H2-D1: -0.3663
  log2FoldChange H2-K1: -0.4443
  log2FoldChange H2-Q4: -0.9033
  log2FoldChange H2-Q6: -0.6888
  log2FoldChange H2-Q7: -0.7384
  log2FoldChange Hivep3: -0.8888
  log2FoldChange Hnrnpab: -0.4744
  log2FoldChange Ier3: -0.643
  log2FoldChange Ifitm1: -0.5428
  log2FoldChange Ifitm3: -0.5054
  log2FoldChange Il1b: -1.038
  log2FoldChange Il1rn: -0.3871
  log2FoldChange Il12b: -0.7451
  log2FoldChange Inhba: -0.8833
  log2FoldChange Irf8: -0.5092
  log2FoldChange Lrrc58: -0.5089
  log2FoldChange Malt1: -0.6085
  log2FoldChange Marcksl1: -0.8077
  log2FoldChange Myo9b: -0.609
  log2FoldChange Nfe2l2: -0.3368
  log2FoldChange Nfkb2: -0.6827
  log2FoldChange Nfkbia: -0.3317
  log2FoldChange Nfkbid: -0.8151
  log2FoldChange Nfkbie: -0.5542
  log2FoldChange Pde4b: -0.698
  log2FoldChange Plau: -0.5236
  log2FoldChange Plek: -0.4983
  log2FoldChange Ptafr: -0.4512
  log2FoldChange Ptgs2: -0.6129
  log2FoldChange Ptpn6: -0.3496
  log2FoldChange Rasgef1b: -0.4887
  log2FoldChange Rgs1: -0.3869
  log2FoldChange Rps28: 0.3044
  log2FoldChange Rsad2: -0.6161
  log2FoldChange S100a8: -0.9378
  log2FoldChange S100a9: -1.055
  log2FoldChange Samsn1: -0.5214
  log2FoldChange Sat1: -0.2878
  log2FoldChange Sel1l: -0.4914
  log2FoldChange Sh3bgrl: -0.3277
  log2FoldChange Slc3a2: -0.6173
  log2FoldChange Slc7a11: -0.4778
  log2FoldChange Slfn2: -0.3087
  log2FoldChange Socs3: -0.448
  log2FoldChange Sqstm1: -0.4417
  log2FoldChange Srgn: -0.3315
  log2FoldChange Stub1: -0.4634
  log2FoldChange Syngr2: -0.3646
  log2FoldChange Tfec: -0.8287
  log2FoldChange Tlr2: -0.455
  log2FoldChange Tmem123: -0.5279
  log2FoldChange Tmsb10: 0.5333
  log2FoldChange Tnf: -0.4212
  log2FoldChange Tnfaip8: -0.4539
  log2FoldChange Tnfrsf9: -0.6055
  log2FoldChange Tnfrsf26: -0.4775
  log2FoldChange Tnip3: -0.5262
  log2FoldChange Ybx1: -0.4889
  log2FoldChange mt-Atp8: 0.4788
